Results on 31 molecules are retold here after ChEMBL document CHEMBL2375216, “Molecular design, synthesis and biological evaluation of cyclic imides bearing benzenesulfonamide fragment as potential COX-2 inhibitors. Part 2” (Bioorg Med Chem Lett, 2013).

The test system of the first test is Rattus norvegicus. Put plainly: Antiinflammatory activity in ip dosed Sprague-Dawley rat assessed as inhibition of carrageenan-induced paw edema measured after 2 hrs plethysmometric analysis. It counts as functional.
For `NS(=O)(=O)c1ccc(CN2C(=O)c3ccc([N+](=O)[O-])cc3C2=O)cc1`, the ED50 (as a rule, the dose at which the effect has come halfway, by size or by number of responders) is 72.4 mg/kg.

For the molecule `NS(=O)(=O)c1ccc(N2C(=O)c3ccc([N+](=O)[O-])cc3C2=O)cc1`, the ED50 came out at 101 mg/kg. On the same count and under the same terms, the same measure for `NS(=O)(=O)c1ccc(CN2C(=O)c3nccnc3C2=O)cc1`: 126 mg/kg; for `NS(=O)(=O)c1ccc(N2C(=O)c3nccnc3C2=O)cc1`: 160 mg/kg; for `NS(=O)(=O)c1ccc(CN2C(=O)c3cccc4cccc(c34)C2=O)cc1`: 200 mg/kg. The same measure, in the same setting: the result for `NS(=O)(=O)c1ccc(N2C(=O)c3cccc4cccc(c34)C2=O)cc1` reads 210 mg/kg.

For `NS(=O)(=O)c1ccc(CN2C(=O)c3cc(Cl)c(Cl)cc3C2=O)cc1`, the ED50 came out at 100 mg/kg. For the molecule `NS(=O)(=O)c1ccc(N2C(=O)c3cc(Cl)c(Cl)cc3C2=O)cc1`, the ED50 amounted to 111 mg/kg. Same read-out and setting: the same measure for `Cc1ccc(-c2cc(C(F)(F)F)nn2-c2ccc(S(N)(=O)=O)cc2)cc1` [CELECOXIB]: 83.4 mg/kg.

The target of a further test is T1, Prostaglandin G/H synthase 1 (Ovis aries, UniProt P05979).
T1 sequence (P05979 whole entry): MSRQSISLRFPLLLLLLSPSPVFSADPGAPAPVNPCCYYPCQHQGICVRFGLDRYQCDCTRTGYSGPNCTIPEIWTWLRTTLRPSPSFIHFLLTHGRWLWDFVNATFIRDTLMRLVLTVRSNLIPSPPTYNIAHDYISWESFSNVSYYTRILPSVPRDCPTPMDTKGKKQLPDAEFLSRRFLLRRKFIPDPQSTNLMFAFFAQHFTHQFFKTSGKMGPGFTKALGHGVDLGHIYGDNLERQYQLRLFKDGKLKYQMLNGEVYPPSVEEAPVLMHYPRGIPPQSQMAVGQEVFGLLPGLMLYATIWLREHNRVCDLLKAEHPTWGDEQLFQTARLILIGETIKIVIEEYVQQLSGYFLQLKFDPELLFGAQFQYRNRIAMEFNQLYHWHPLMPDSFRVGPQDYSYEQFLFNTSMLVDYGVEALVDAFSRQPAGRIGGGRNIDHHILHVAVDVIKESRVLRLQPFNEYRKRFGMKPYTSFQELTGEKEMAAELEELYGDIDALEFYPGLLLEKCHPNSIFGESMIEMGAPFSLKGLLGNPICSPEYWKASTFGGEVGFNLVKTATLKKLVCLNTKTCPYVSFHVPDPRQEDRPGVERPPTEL
Kind of test: Inhibition of ovine COX1-mediated prostaglandin alpha production by enzyme immuno assay.
Regarding `O=C(O)c1ccc(N2C(=O)c3cccc4cccc(c34)C2=O)cc1`, the IC50 (usually the concentration that inhibits the measured activity by half) is over 100 µM. Regarding `NS(=O)(=O)c1ccc(N2C(=O)c3c(Cl)c(Cl)c(Cl)c(Cl)c3C2=O)cc1`, the half-maximal inhibitory concentration (IC50) is over 100 µM.

In turn, `O=C(O)c1ccc(N2C(=O)c3c(Cl)c(Cl)c(Cl)c(Cl)c3C2=O)cc1` returned an IC50 of over 100 µM. Consider `NS(=O)(=O)c1ccc(CN2C(=O)c3ccc([N+](=O)[O-])cc3C2=O)cc1`, for which the IC50 was over 100 µM. Molecule `NS(=O)(=O)c1ccc(N2C(=O)c3ccc([N+](=O)[O-])cc3C2=O)cc1` displayed an IC50 of over 100 µM. Consider `O=C(O)c1ccc(N2C(=O)c3ccc([N+](=O)[O-])cc3C2=O)cc1`, for which the IC50 is over 100 µM. `NS(=O)(=O)c1ccc(CN2C(=O)c3nccnc3C2=O)cc1` gave an IC50 of over 100 µM.

`NS(=O)(=O)c1ccc(N2C(=O)c3nccnc3C2=O)cc1` had an IC50 of over 100 µM. For the molecule `O=C(O)c1ccc(N2C(=O)c3nccnc3C2=O)cc1`, the IC50 was over 100 µM.

For the molecule `NS(=O)(=O)c1ccc(CN2C(=O)c3cccc4cccc(c34)C2=O)cc1`, the IC50 is over 100 µM. On the same count and under the same terms, the same measure for `NS(=O)(=O)c1ccc(N2C(=O)c3cccc4cccc(c34)C2=O)cc1`: over 100 µM; for `NS(=O)(=O)c1ccc(CN2C(=O)CCC2=O)cc1`: over 100 µM. On the same count and under the same terms, the result for `NS(=O)(=O)c1ccc(N2C(=O)CCC2=O)cc1` reads over 100 µM; that for `O=C(O)c1ccc(N2C(=O)CCC2=O)cc1`, over 100 µM; that for `NS(=O)(=O)c1ccc(CN2C(=O)[C@H]3CC=CC[C@H]3C2=O)cc1`, over 100 µM. Molecule `NS(=O)(=O)c1ccc(N2C(=O)[C@H]3CC=CC[C@H]3C2=O)cc1` had an IC50 of over 100 µM.

For `O=C(O)c1ccc(N2C(=O)[C@H]3CC=CC[C@H]3C2=O)cc1`, the IC50 is over 100 µM. Still for that read-out and setting: the same measure for `NS(=O)(=O)c1ccc(CN2C(=O)c3ccccc3C2=O)cc1`: over 100 µM. On the same count and under the same terms, the same measure for `Cc1ccc2c(c1)C(=O)N(Cc1ccc(S(N)(=O)=O)cc1)C2=O`: over 100 µM; for `Cc1ccc2c(c1)C(=O)N(c1ccc(S(N)(=O)=O)cc1)C2=O`: over 100 µM; for `Cc1ccc2c(c1)C(=O)N(c1ccc(C(=O)O)cc1)C2=O`: over 100 µM. Same read-out and setting: the result for `CC(C)(C)c1ccc2c(c1)C(=O)N(Cc1ccc(S(N)(=O)=O)cc1)C2=O` reads over 100 µM; that for `CC(C)(C)c1ccc2c(c1)C(=O)N(c1ccc(S(N)(=O)=O)cc1)C2=O`, over 100 µM.

In the case of `CC(C)(C)c1ccc2c(c1)C(=O)N(c1ccc(C(=O)O)cc1)C2=O`, the IC50 is over 100 µM. `NS(=O)(=O)c1ccc(CN2C(=O)c3cc(Cl)c(Cl)cc3C2=O)cc1` gave an IC50 of over 100 µM. The same measure, in the same setting: the result for `NS(=O)(=O)c1ccc(N2C(=O)c3cc(Cl)c(Cl)cc3C2=O)cc1` reads over 100 µM. Same read-out and setting: the same measure for `O=C(O)c1ccc(N2C(=O)c3cc(Cl)c(Cl)cc3C2=O)cc1`: over 100 µM; for `NS(=O)(=O)c1ccc(CN2C(=O)c3c(Cl)c(Cl)c(Cl)c(Cl)c3C2=O)cc1`: over 100 µM; for `O=C(O)c1ccc(N2C(=O)c3ccccc3C2=O)cc1`: over 100 µM. On to `NS(=O)(=O)c1ccc(N2C(=O)c3ccccc3C2=O)cc1`, for which the IC50 is over 100 µM.
